Reference: paper PMC7099587 (ACS Central Science, 2020)
Numbered stars: 1 amine (or outer) side, 2 acyl side, 3 side chain; on linkers, the order of the positions; unused ones are H or OH. Bridge positions count the residues as written; N and C are the ends. Square brackets hold non-standard residues; d marks the D form. Ends that are not written are not given here. Peptide text beside a SMILES is read from it. CH2CH2 = C(C[*:2])[*:1]

Key:
[1] = target: Sonic Hedgehog (Shh) (Homo sapiens, UniProt Q15465); assay: Shh binding assay
[2] = target: Keap1 Kelch domain (KKD) (Homo sapiens, UniProt Q14145); assay: Keap1 Kelch domain direct binding assay
Keap1 Kelch domain (KKD), sequence (Q14145 321-609 limits assumed): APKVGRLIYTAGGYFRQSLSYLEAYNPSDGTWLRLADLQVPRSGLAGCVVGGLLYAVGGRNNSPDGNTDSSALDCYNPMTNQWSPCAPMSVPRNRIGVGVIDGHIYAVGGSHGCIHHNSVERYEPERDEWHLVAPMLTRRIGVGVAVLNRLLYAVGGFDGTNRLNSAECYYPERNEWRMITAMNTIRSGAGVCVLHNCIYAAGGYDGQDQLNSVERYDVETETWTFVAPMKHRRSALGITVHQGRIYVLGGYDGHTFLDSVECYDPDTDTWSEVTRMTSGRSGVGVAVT

[3] = target: Sonic Hedgehog construct with N-terminal poly-His tag and TEV-cleavable linker ("Shh") (UniProt Q15465); assay: ELISA
[4] = target: Shh; conditions: read-out: KD (Shh); cited from earlier work
[5] = target: HHIP L2 linear peptide L2 loop (Homo sapiens) (UniProt Q96QV1); conditions: cited from earlier work
[6] = target: Kelch domain of Kelch-like ECH-associated protein 1 (Keap1); assay: ELISA

Molecule: CSCC[C@@H]1NC(=O)[C@H](C)NC(=O)[C@H](CCC(=O)O)NC(=O)[C@@H](NC(=O)[C@@H]2CCCN2C(=O)[C@H](CO)NC(=O)[C@H](CO)NC(=O)CNC(=O)[C@H](CO)NC(=O)CNC(=O)[C@H](CO)NC(=O)CNC(=O)[C@H](CCCCN)NC(=O)[C@H](CC(=O)O)NC(=O)[C@H](CC(=O)O)NC(=O)[C@H](CC(=O)O)NC(=O)[C@H](CC(=O)O)NC(=O)[C@H](CCCCN)NC(=O)[C@H](Cc2ccc(O)cc2)NC(=O)[C@H](CC(=O)O)NC(=O)[C@@H](N)CCSC)Cc2ccc(cc2)OCCSC[C@@H](C(=O)N[C@H](C(=O)N[C@@H](CC(=O)O)C(=O)N[C@H](C(=O)O)[C@@H](C)O)[C@@H](C)O)NC(=O)[C@H](CCSC)NC(=O)[C@H](CC(=O)O)NC1=O [Shh-m1] (H-MDYKDDDDKGSGSGSSPYEAMDMCTDT-OH; linker 18-24 via CH2CH2; N-terminus and C-terminus assumed)
- Kd [1]: 550 nM

Molecule: CSCC[C@@H]1NC(=O)[C@H](CCC(=O)O)NC(=O)[C@H](CCC(=O)O)NC(=O)[C@@H](NC(=O)[C@H](CC(=O)O)NC(=O)[C@H](CC(=O)O)NC(=O)[C@H](CC(C)C)NC(=O)[C@@H](NC(=O)[C@H](CO)NC(=O)CNC(=O)[C@H](CO)NC(=O)CNC(=O)[C@H](CCCCN)NC(=O)[C@H](CC(=O)O)NC(=O)[C@H](CC(=O)O)NC(=O)[C@H](CC(=O)O)NC(=O)[C@H](CC(=O)O)NC(=O)[C@H](CCCCN)NC(=O)[C@H](Cc2ccc(O)cc2)NC(=O)[C@H](CC(=O)O)NC(=O)[C@@H](N)CCSC)[C@@H](C)O)Cc2ccc(cc2)OCCSC[C@@H](C(=O)N[C@@H](CO)C(=O)N[C@@H](CC(=O)O)C(=O)N[C@H](C(=O)O)[C@@H](C)O)NC(=O)CNC(=O)[C@H](CC(=O)O)NC1=O [cyclic version of the HHIP L2 sequence] (H-MDYKDDDDKGSGSTLDDYEEMDGCSDT-OH; linker 18-24 via CH2CH2; C-terminus assumed)
- fold lower affinity vs Shh-m1 [1]: ~7 fold

Molecule: cyclo[Y*D(X)ETGEC] (sidechain bridge or staple) [KKD(6X)-m1]
- fold higher affinity vs KKD-m1 [2]: ~3 fold

Molecule: cyclic version of the HHIP L2 sequence (from UniProt Q96QV1 375-387) (peptide)
- Kd [3]: 3600 nM

Molecule: TLSW(Y*)EAMDMCTD (sidechain bridge or staple) [HL2-m5]
- Kd [4]: 170 nM

Molecule: O=C(C[C@@H]1C/C=C/CCC(=O)O[C@H](c2ccccc2)CNC1=O)NCc1ccc(Cl)cc1 [robotnikinin]
- Kd [4]: 3100 nM

Molecule: cyclo[Y*D(X)ETGEC] (sidechain bridge or staple) [KKD(6X)-m2]
- fold higher affinity vs KKD-m1 [2]: ~3 fold

Molecule: Sonic Hedgehog (from UniProt Q15465)
- Kd [5]: 150000 nM

Molecule: [O2beY]DIETGEC (thioether 1-8) [KKD(6X)-m2]
- Kd [6]: 40 nM

Molecule: [O2beY]DAETGEC (thioether 1-8) [KKD(6X)-m1]
- Kd [6]: 40 nM
